Data: publication PMC3243944 (Biopolymers, 2011)
Where no end group is shown, it is not given here.

How the values were obtained:
[1] = system: 5-helix bundle (5HB) protein construct derived from the hRSV fusion (F) protein; settings: protein-based (5HB) FP screening assay; cited from earlier work
[2] = Solubility in aqueous buffer; type: physicochemical

## ISQVNEKINQSLAFIRKSDE [C20]
[1]
  Binding affinity to the 5HB: low micromolar
[2]
  solubility: < 2000 µg/mL
